The structures appear in SMILES notation.

Assay [1] concerns the target T1, Phosphoenolpyruvate carboxykinase, cytosolic [GTP] (Rattus norvegicus, UniProt P07379).
T1 sequence (P07379 whole entry): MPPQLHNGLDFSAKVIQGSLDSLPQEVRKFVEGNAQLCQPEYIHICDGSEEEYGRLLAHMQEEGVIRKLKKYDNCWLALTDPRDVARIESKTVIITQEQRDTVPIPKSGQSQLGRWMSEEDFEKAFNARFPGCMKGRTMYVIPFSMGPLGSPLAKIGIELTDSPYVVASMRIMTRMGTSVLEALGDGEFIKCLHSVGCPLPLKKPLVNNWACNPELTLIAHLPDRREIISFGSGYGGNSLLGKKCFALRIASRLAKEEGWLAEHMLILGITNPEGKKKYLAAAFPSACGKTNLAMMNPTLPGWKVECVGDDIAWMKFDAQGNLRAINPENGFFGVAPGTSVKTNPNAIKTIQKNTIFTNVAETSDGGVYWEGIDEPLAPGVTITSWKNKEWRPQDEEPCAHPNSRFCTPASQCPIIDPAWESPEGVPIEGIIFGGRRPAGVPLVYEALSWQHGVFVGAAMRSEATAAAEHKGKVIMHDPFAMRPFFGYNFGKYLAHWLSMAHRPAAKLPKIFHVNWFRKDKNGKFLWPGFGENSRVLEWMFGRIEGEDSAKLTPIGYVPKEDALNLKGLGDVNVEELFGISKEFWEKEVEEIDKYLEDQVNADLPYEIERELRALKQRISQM
Kind of assay: PEPCK Inhibition Assay. On the procedure:
(§1) The inhibition of H477R PEPCK by β-sulfopyruvate (βSP), oxalate, and GMPPCP was conducted in the direction of PEP synthesis (OAA → PEP). The Michaelis constant of OAA was determined at various fixed concentrations of β-SP (0−100 μM) or oxalate (0−1000 μM), and the Michaelis constant for GTP was determined at various fixed concentrations of GMPPCP (0-800 μM).

For assay [2], the target named is Phosphoenolpyruvate carboxykinase, cytosolic [GTP] [H477R] (Rat, UniProt P07379, H477R). Kind of assay: PEPCK Inhibition Assay. The protocol:
as §1

Chain of Phosphoenolpyruvate carboxykinase, cytosolic [GTP] [H477R] (P07379 whole entry H477R): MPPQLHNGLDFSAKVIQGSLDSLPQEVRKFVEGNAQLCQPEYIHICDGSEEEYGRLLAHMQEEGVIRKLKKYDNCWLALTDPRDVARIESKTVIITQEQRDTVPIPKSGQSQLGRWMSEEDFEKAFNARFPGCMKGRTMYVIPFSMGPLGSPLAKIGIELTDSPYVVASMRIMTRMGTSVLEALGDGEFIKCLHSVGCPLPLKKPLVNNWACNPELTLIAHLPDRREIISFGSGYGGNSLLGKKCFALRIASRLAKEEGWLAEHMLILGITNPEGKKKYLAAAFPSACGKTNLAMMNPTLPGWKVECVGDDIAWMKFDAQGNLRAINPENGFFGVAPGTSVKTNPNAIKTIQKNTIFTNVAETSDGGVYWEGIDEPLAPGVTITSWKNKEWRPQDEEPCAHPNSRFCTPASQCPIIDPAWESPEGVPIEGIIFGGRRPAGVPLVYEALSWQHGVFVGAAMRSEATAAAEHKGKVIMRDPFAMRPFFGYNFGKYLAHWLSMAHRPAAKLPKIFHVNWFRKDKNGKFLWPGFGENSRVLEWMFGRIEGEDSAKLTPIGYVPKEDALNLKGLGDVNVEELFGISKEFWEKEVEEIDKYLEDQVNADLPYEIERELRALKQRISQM

Usually Ki stands for a dissociation constant, usually derived from enzyme kinetics or from competition with a known ligand. For `Nc1nc(O)c2ncn([C@@H]3O[C@H](COP(=O)(O)OP(=O)(O)C[P+]([O-])(O)O)[C@@H](O)[C@H]3O)c2n1` [β,γ-methyleneguanosine 5′-triphosphate], the Ki stood at 150 µM in assay [1] and 696 µM in assay [2]. As to `O=C(O)CC(=O)C(=O)O` [keto-Oxaloacetate], in assay [2], the inhibition constant Ki is 441 µM. `C=C(OP(=O)(O)O)C(=O)O` [PHOSPHOENOLPYRUVATE]: the Ki in assay [2] came to 289 µM. On the same count and under the same terms, in the case of `O=C(O)C(=O)CS(=O)(=O)O` [β-Sulfopyruvate] it was 37 µM.

Source of the values: BindingDB's records for doi:10.1021/acs.biochem.7b00178 (University of Waterloo, 2017).
